# Assay results taken from patent US20240408043A1, “COMPOSITIONS AND METHODS FOR USE IN INCREASING MOTIVATIONAL PERFORMANCE” (SOCIETE DES PRODUITS NESTLE S.A., priority 2021, published 2024).
# “Also recorded” adds a separate entry of the source.
# Assays:
# [1] = test system: GSH in the nucleus accumbens; assay: GSH level in the nucleus accumbens after NAC in the drinking water; type: in vivo, rat; details: adult male rats, NAC 500 mg/L in the drinking water for 2 weeks, FIG. 1B
# Adult male Wistar rats = assay: Progressive ratio test of motivated behaviour (operant conditioning, nose poke for saccharine pellets); type: in vivo, rat; details: NAC 500 mg/L in the drinking water for 2 weeks, two-hour session
# Method: Adult male outbred rats were trained for nose poke for saccharine food pellets for one week on an FR1 training schedule as described in the methods below. […] Following 2 weeks of treatment, rats were given an additional 2 training sessions, followed 24 h later by a progressive ratio session designed to test their motivated behaviour. During this progressive ratio session, rats have to increasingly work harder to earn the saccharine pellet, as described in the methods below. […] The breakpoint is defined as the last step in the session where the animals received a reward and is a direct correlate of their willingness to exert an effort. […] Animals: Adult male Wistar rats (Charles Rivers, Saint-German-Nuelle, France) weighing 250-275 gr at the beginning of the experiment were used for all experiments. Rats were individually housed in cages in housing colonies on a 12:12 h reversed light:dark cycle with lights on at 20:00, and lights-off at 8:00. Food and water were available adlibitum. Following a week of acclimatization to the animal facilities, rats were handled for 2 min per day for three days prior to the start of the experiments, in order to habituate to the experimenters. Operant conditioning: Ten days after introduction to the reversed day-night cycle, rats started training in a fixed ratio 1 reinforcement schedule (FR1). Operant chambers (Coulbourn Instruments, Holliston, MA, US), placed in sound attenuating cubicles, were equipped with a grid, underneath which a tray with standard bedding material was placed for collection of feces and urine after each training session. Each chamber had one food tray and two ports placed on either side of the tray. A cue light was placed in each port and the food tray, whereas a house light was placed above the food tray. […] Correct nosepokes (i.e. nosepokes in the active port and outside the timeout period, thus resulting in food delivery) were calculated to evaluate behavioural performance, as well as the number of acquired rewards and the last completed ratio (breakpoint).
smiles,measurement,setting,value
"CC(=O)N[C@@H](CS)C(=O)O [NAC, N-acetyl cysteine]",GSH in the nucleus accumbens compared to vehicle treated rats,[1],enhance GSH levels; also recorded: enhanced GSH
same,"nose pokes for the reward (correct nosepokes) in progressive ratio session, compared to vehicle",Adult male Wistar rats; FIG. 1C,significantly more nose pokes
same,"number of rewards earned in progressive ratio session, compared to vehicle",Adult male Wistar rats; FIG. 1D,greater number of rewards; also recorded: more overall rewards
same,"breakpoint (last completed ratio) in progressive ratio session, compared to vehicle",Adult male Wistar rats; FIG. 1E,significantly higher breakpoint level
